Values joined by “and” are separate entries in the source; they are usually repeats but may differ in a detail not shown here. Equal entries are not always repeated. Where two headings read alike, the source gives them in different places.
Columns and labels:
[1] = Surface tension measurements (CAC, area per molecule); format: physicochemical; conditions: Krüss K11, 25 °C, PBS or saline (171.5 mM NaCl, pH 7.2) of equivalent ionic strength, saline for C14KKGGII, points repeated at least three times
Description: Surface tensions of salt solutions of the amphiphiles were measured using a Krüss Force Tensiometer K11 at 25 °C. Saline (171.5 mM NaCl, final pH 7.2) instead of phosphate-buffered saline (PBS) was used to dissolve the samples of peptide C14KKGGII in order to avoid gelation above 0.1 mM. The ionic strength of the saline solution was the same as that of the PBS (consisting of 137 mM NaCl, 2.7 mM KCl, 8.1 mM Na2HPO4, and 1.9 mM KH2PO4, pH 7.2) solution employed in antimicrobial assays. Concentration effects on the surface tension were investigated for each amphiphile, and its CAC in the buffer environment was determined. All the data points were repeated at least three times. Quadratic functions were used to fit the surface tension at low concentrations below their CACs, while linear functions were used to fit the high concentration regions above the CACs for all three amphiphiles: [drawing 1] 1 [drawing 2] 2 where γ represents the surface tension in milli-newtons per meter, C is the amphiphile concentration in millimolar, and a1, b1, b2, c1, and c2 are the best fitted parameters. Intersections of the two lines give the estimated CACs of the amphiphiles. The Gibbs equation for solutions with a constant and excess salt is [drawing 3] […] The areas per molecule for the three amphiphiles at their CACs were calculated using [drawing 6] […]

[2] = Fluorescein (CF) leakage from SUVs; conditions: for threshold concentration of fast leakage increase, PC/PG SUVs: end of the low leakage induction range; for concentration for 20% leakage, PC/Chol. vesicles / concentration for 20% leakage, PC/PG vesicles / concentration for 100% leakage, PC/Chol. vesicles / concentration for 100% leakage, PC/PG vesicles / concentration for minimal leakage, PC/Chol. vesicles / concentration for minimal leakage, PC/PG vesicles / EC50: CF-SUVs 0.25 mg/mL in TBS pH 7.2, fluorescence ex 480/em 520 nm, read from Figure 5
Description: Lipid SUVs with single or multiple components were used to model different biomembranes. In this work, two lipid mixtures with different surface charges were used to mimic bacterial inner membranes with the molar ratio of POPC/POPG of 7:3 and mammalian cytoplasmic cell membranes with a molar ratio of POPC/cholesterol of 1:1. Lipids (or cholesterol) were dissolved and mixed in chloroform, and then, the solvent was removed via evaporation and lyophilization. Dry lipids were dissolved in Tris buffered saline (TBS, containing 10 mM Tris-HCl and 154 mM NaCl, with a final pH of 7.2) and were fully dispersed via sonication. After five freeze/thaw loops of the lipid solution, SUVs were prepared by extruding 31 times using an Avanti Polar Lipids mini extruder. SUV solutions were diluted to 0.5 mg/ml for further use.
Concentration effects of the binding of amphiphiles to lipid SUVs were examined by means of fluorescein leakage. 5(6)-Carboxyfluorescein (CF)-entrapped SUVs (CF-SUVs) were prepared as described previously,[26] except that dried lipids were dissolved into 40 mM TBS solution of CF before the freeze/thaw loop. After extrusion, CF-SUVs were separated from unentrapped fluorescein molecules using a Sephadex G50 chromatography column. Amphiphile solutions of various concentrations were then blended in a 1:1 ratio with CF-SUVs, giving a mixture of amphiphiles of the desired concentration and CF-SUVs of concentration 0.25 mg/mL. A Thermo Scientific Varioskan LUX was employed to determine the amount of released CF in each sample by measuring their emission intensity I520, with an excitation wavelength of 480 nm and an emission wavelength of 520 nm. CF-SUVs alone and with added 0.2% Triton-X were measured as positive and negative controls (I+ and I–), respectively. The percentage of leakage L for each sample was calculated using Ln = (In,520 – I+)/(I– – I+) × 100%.

[3] = read-out: concentration for 50% leakage, PC/Chol. vesicles
[4] = read-out: concentration for 50% leakage, PC/PG vesicles

Row | SMILES | CAC (critical aggregation concentration) [1] [µM] | concentration above which fast leakage was induced, PC/chol SUVs ([2]; CF leakage, end of the low leakage induction period) [µM] | threshold concentration of fast leakage increase, PC/PG SUVs ([2]; CF leakage) [µM] | concentration for 20% leakage, PC/Chol. vesicles [2] [µM] | concentration for 20% leakage, PC/PG vesicles [2] [µM] | concentration for 100% leakage, PC/Chol. vesicles [2] [µM] | concentration for 100% leakage, PC/PG vesicles [2] | concentration for minimal leakage, PC/Chol. vesicles [2] | concentration for minimal leakage, PC/PG vesicles [2] | EC50 [2, 3] [µM] | EC50 [2, 4] [µM] | leakage, PC/PG SUVs ([2]; at 256 μM) [%] | leakage, PC/PG SUVs ([2]; from 16 to 75 μM) | maximum leakage, PC/chol SUVs ([2]; at 100 μM and above) [%]
1 | CCCCCCCCCCCC[N+](C)(C)C.[Br-] [C12TAB, dodecyltrimethylammonium bromide] | ~1000 ± 100 | ~70 | 75 | 500 | 125 | >2000 | above 1000 μM and 1000 μM | 10 µM | around 16 μM and 75 μM | 2000 | 256 | 60 | less than 10% | 
2 | CCCCCCCCCCCCCC[N+](C)(C)C.[Br-] [C14TAB, tetradecyltrimethylammonium bromide] |  |  | 16 | 10 | 30 | >500 | 500 µM | around 4 μM | 4 µM | 100 | 50 |  |  | 50

— publication PMC9161444, “In-Membrane Nanostructuring of Cationic Amphiphiles Affects Their Antimicrobial Efficacy and Cytotoxicity: A Comparison Study between a De Novo Antimicrobial Lipopeptide and Traditional Biocides” (Langmuir, 2022)
